Source: patent publication US20210051963A1, “METHODS AND COMPOSITIONS TO IMPROVE PLANT HEALTH AND/OR PLANT PERFORMANCE” (PLANTRESPONSE BIOTECH, S.L., priority 2017, published 2021)

Columns and labels:
[1] = system: Sclerotinia sclerotiorum strain CH109; assay: White mold disease index in tomato plants treated with PRBT, 6-HP-2CA or 6-OXO-2CA; assay type: in vivo; conditions: for disease index vs untreated inoculated tomato plants: PRBT 0.054 g L-1, 6-HP-2CA 0.1 g/l, 6-OXO-2CA 0.1 g/l, 10 and 14 dpi; for Disease Control (%) / Disease index (10 dpi) / Disease index (15 dpi): inoculated tomato var. Money Maker, PRBT 0.054 g/L, 6-HP-2CA or 6-OXO-2CA 0.1 g/L, 25 ml/plant; for Disease index (10 dpi) / Disease index (15 dpi): score 0-5
Method: Tomato plants var. Money Maker were sown on Dec. 13, 2016, distributed in random blocks of 9 plants with 4 replicates (36 plants per treatment) and grown in a standard greenhouse. Treated plants were sprayed on Mar. 6, 2017 with 25 ml/plant at 3 ml/1 (0.054 g L^−1) of PRBT (with surfactant 2:1, v/w, antifoam and biocide) or with 25 ml (0.1 g L^−1) of 6-hydroxypiperidine-2-carboxylic acid (6-HP-2CA), or with 25 ml (0.1 g 1-1) of 6-oxopiperidine-2-carboxylic acid (6-OXO-2CA).
Two days later plants were inoculated with 25 ml/plant of a foliar spray of blended Sclerotinia sclerotiorum strain CH109 mycelium that had been grown to optical density at 600 nm of 0.8. Plants were kept at 100% relative humidity for seven days and then humidity was lowered to 80% for the rest of the experiment. Plants were then evaluated at 10 and 14 days post inoculation (dpi) according to a disease severity index score were 0 corresponds to no symptoms and 5 to a dead plant. No statistically significant differences among treatments with the same letter (LSD method, p=0.05)

[2] = system: Sclerotinia sclerotiorum strain CH109; assay: White mold disease index in pepper plants treated with PRBT or 6-HP-2CA; assay type: in vivo; conditions: for Disease index 4 dpi / Disease index 6 dpi: inoculated pepper var. Murano, 10 ml/plant, score 0-4
Method: Pepper plants var. Murano were sown on Oct. 20, 2016 and distributed in random blocks of 3 plants with 4 replicates (12 plants per treatment) and grown in a standard greenhouse. PRBT treated plants were sprayed on Nov. 23, 2016 with (0.038 g L^−1) PRBT at 10 ml/plant or with (0.01 g L^−1) 6-hydroxypiperidine-2-carboxylic acid (6-HP-2CA) or with (0.1 g L^−1) 6-HP-2CA or with (0.01 g L^−1) 6-HP-2CA formulated with an adjuvant or with (0.1 g L^−1) 6-HP-2CA (0.01 g L^−1) formulated with an adjuvant at 10 ml/plant. Two days later plants were inoculated with 10 ml/plant of a foliar spray of blended Sclerotinia sclerotiorum strain CH109 mycelium that had been grown to optical density at 600 nm of 1.7. Plants were kept at 100% relative humidity for four days and then humidity was lowered to 80% for the rest of the experiment. Plants were then evaluated 4, and 6 days post inoculation (dpi) according to a disease severity index score were 0 corresponds to no symptoms and 4 to a dead plant. No statistically significant differences among treatments with the same letter (LSD method, p=0.05)

| Structure (SMILES) | disease index vs untreated inoculated tomato plants [1] | Disease Control (%) [1] [c %] | Disease index (10 dpi) [1] [b] | Disease index (15 dpi) [1] [b] | disease index vs untreated inoculated pepper plants ([2]; high (0.1 g/L) concentration) | Disease index 4 dpi ([2]; 0.01 g/L) [b] | Disease index 6 dpi ([2]; 0.01 g/L) [b] | Disease index 4 dpi ([2]; 0.1 g/L) [a] | Disease index 6 dpi ([2]; 0.1 g/L) [a] |
| --- | --- | --- | --- | --- | --- | --- | --- | --- | --- |
| O=C1CCC[C@H](C(=O)O)N1 (stereo in doubt) [6-OXO-2CA, 6-oxopiperidine-2-carboxylic acid] | significantly lower | 10 | 2.3 | 2.3 | – | – | – | – | – |
| O=C(O)C1CCCC(O)N1 (stereo not shown) [6-HP-2CA, 6-hydroxypiperidine-2-carboxylic acid] | significantly lower | 11 | 2.2 | 2.2 | significantly lower | 0.9 | 2.3 | 0.2 | 0.5 |
